Test results: publication PMC12188386, “Selective CBP/EP300 Bromodomain Inhibitors: Novel Epigenetic Tools to Counter TNF-α-Driven Inflammation” (JACS Au, 2025)

Columns and labels:
[1] = test system: rmTNF-α-induced cytokines in the popliteal lymph node; experiment: TNF-α induced inflammation model, cytokines in pLN (LEGENDplex); assay type: in vivo, mouse; conditions: mice, 5 h post-rmTNF-α; for concentrations of IL-1β, MCP-1, IL-1α and IL-6 in the pLN: CAPTISOL solutions s.c. (footpad) and i.p. 90 min after rmTNF-α, vs rmTNF-α + CAPTISOL
Procedure: C57BL/6 mice were bred in -house or acquired from Charles River Laboratories. Mice were maintained in specific pathogen -free facilities at the Institute for Research in Biomedicine, Bellinzona. Experiments were performed following the Swiss Federal Veterina ry Office guidelines and authorized by the relevant institutional committee of the Cantonal Veterinary (Commissione cantonale per gli esperimenti sugli animali, Ticino) .
TNF-α induced inflammation model
Recombinant Mouse TNF-α (rmTNF-α) (aa 80-235) Protein (Cat# 410-MT-050/CF) was purchased from RnDsystems® and resuspended following instruction into sterile PBS. Mice were anesthetized with isoflurane and 300 ng of rmTNF-α was administered subcutaneously in the footpad (10 µL injection volume), and for the experiments with the CBP/EP300 inhibitors an additional 300 ng of rmTNF-α was also administered intraperitoneally (100 µL injection volume). After 1.5 h, mice were injected with 10 µL of the prepared CAPTISOL […]
foodpad and also intraperitoneally (for i.p. injection, the 10 µL of CAPTISOL solution was diluted to a final volume of 100 µL using PBS). Organs were collected 5 h after TNF-α […]
LEGENDPlexTM assays (Mouse Pro-inflammatory Chemokine Panel and Mouse Inflammation Panel; Biolegend) were performed to monitor cytokine/chemokine expression. Briefly, popliteal LNs were collected and carefully disrupted in […] ice-cold phosphate buffer, minimizing cell rupture. The suspension was centrifuged at 1,500 rpm for 5 min, and the […]
supernatant was c ected. μ supernatant was used f r the pr t c f win the manufacturer’s instructi ns. amp es were ana zed f w c t metr n an rtessa Biosciences), and data was analyzed using LEGENDPlex software (BioLegend).
Popliteal LNs were collected, disrupted with tweezers, and digested for 10 min at 37°C in an enzyme mix composed of DNase I (0.28 mg/mL, Amresco), dispase (1 U/mL, Corning), and collagenase P (0.5 mg/mL, Roche) in calcium- and magnesium-free PBS (PBS-, Sigma-Aldrich) followed by a stop solution composed of 2 mM EDTA (Sigma -Aldrich) and 2% heat-inactivated filter-sterilized fetal calf serum (Thermo Fisher Scientific) in PBS -. […] Where indicated, intracellular staining was performed using Intracellular Fixation and Permeabilization Buffer Set (eBioscience), following the manufacturer’s instructi ns. ead ce s were exc uded u sing Zombie fixable viability dye (Biolegend), and data were analyzed using FlowJo software (TriStar Inc).
In this study, various combinations of the following fluorescence -conjugated antibodies have been used for cell-surface phen t pic stainin : α - α α […]
Data was analysed and graphs prepared using GraphPad Prism. […]

panel of 32 bromodomains = experiment: bromoMAX BROMOscan panel; assay type: binding; conditions: 1 µM
Procedure: was used as the calibration curve. To obtain saturated solutions of the compounds of interest, in duplicates 4.4 µL of a 10 or 5 mM stock in DMSO was added to 436 µL Buffer (PBS, pH = 7.4), to give a final concentration of 100 or 50 µM. Samples were incubated on a shaker (500 rpm) at 37°C for 90 minutes and then filtered (Millex-GV 13 mm, 0.22 µm). 304 µL of the filtrate was mixed with 76 µL of acetonitrile on a dilution plate, from which 350 µL was transferred to a UV-plate and UV-absorption was read using a SpectraMax M5 (Molecular devices). The absorbance was blank-corrected and compared to the calibration curve to […]
solubility. […]
lower solubility (2) compounds respectively in a 12.5 w/v% CAPTISOL® solution in water. […] Based on the known density of 12.5 % CAPTISOL® solution (d = 1.05755 g/mL at 25 °C), the precise weight of the resulting solution and so the required amount of water by weight was calculated. […] In duplicates, aliquots of the filtrates were taken and diluted with blank 12.5 % CAPTISOL® water solution in either a 1:14 (higher sol. compounds) or 1:7 (lower sol. compounds) ratio, 350 µL was transferred to a 96-Well Plate (Greiner, UV-star) then UV absorption (240-400 nm, 10 nm steps) was measured using a SpectraMax M5 (Molecular devices). […] The calculated concentrations are available in Table S4. […]
The bromodomain concentration in the eluates was measured by qPCR. […]

Cc1cc2c(NC(=O)c3cc(NC(=O)c4ccco4)cc(-c4ccn(C)n4)c3)cccc2nn1 [Compound 2]
decrease of IL-6 in the pLN compared to GNE-272 [1]: 4 fold | concentrations of IL-1β, MCP-1, IL-1α and IL-6 in the pLN [1]: significant reduction | selectivity over BRD4(1) and a broader panel of BRD-containing proteins (panel of 32 bromodomains): highly selective

Cc1cc2c(NC(=O)c3cc(NC(=O)[C@H]4CCCO4)cc(-c4ccn(C)n4)c3)cccc2nn1 [Compound 5]
decrease of IL-6 in the pLN compared to GNE-272 [1]: 7 fold | concentrations of IL-1β, MCP-1, IL-1α and IL-6 in the pLN [1]: significant reduction | selectivity over BRD4(1) and a broader panel of BRD-containing proteins (panel of 32 bromodomains): highly selective
